“Also recorded” adds a separate entry of the source.

In data set [1] the test system is C. trachomatis. Nature of the data set: Number, size and development of chlamydial inclusions in HeLa cells (confocal microscopy, ImageJ). The conditions noted are these: for Inclusion size / Number of inclusions: C. trachomatis 24 h; for Inclusion development: total infection 24 h. It counts as cell-based, Chlamydia trachomatis strain D. The procedure:
Propagation of Chlamydia and infections. Chlamydia trachomatis strain D (C. trachomatis) was propagated in HeLa cells grown in complete DMEM containing cyclohexamide (2 μg/ml). After 48 h, infected cells were harvested in sucrose-phosphate-glutamate (SPG) buffer, ruptured by vortexing with 3 mm glass beads. EBs were purified using previously described methods. The resulting bacterial pellet was resuspended in cold SPG buffer with a 21 to 22-gauge injection needle and stored in aliquots at −80° C. For infection, chlamydial EBs were added to cells in monolayer (80% confluence) at a multiplicity of infection (MOI) of 2-10 for all studies included here. Centrifugation was not used during the infection.
siRNA transfections. […] After 24 h, transfected cells were replated for a second round of transfection. After another 24 h, cells were infected with C. trachomatis and incubated for different time intervals (siRNA was maintained during the infection) according to the experimental design and were either stained for analyzing the inclusion development or prepared for Western blot analysis.
(§1) EGFR inhibitor treatment. […] The cells were pretreated with Erlotinib (25 μM) for 2 h and then infected with C. trachomatis. […] The inhibitor concentration was maintained during the infection. In certain experiments in which protein phosphorylation was investigated (FIG. 1, Panels B, D, F and G, FIG. 2, FIG. 3 and FIG. 11) the cells were serum starved overnight before drug treatment and C. trachomatis infection. […] Infected samples were used either for Western blotting or confocal imaging as described below. In another set of experiments the cells were infected with C. trachomatis followed by addition of Erlotinib at 2.5, 5 and 18 hpi. The total time for C. trachomatis infection was 24 h after which the samples were used for Western blotting or confocal imaging.
Immunofluorescence. Cells were infected with C. trachomatis as described above. The cells were washed 5 times with PBS and fixed at either 2.5 hpi or 24 hpi with 4% PFA for 10 min and blocked with 5% BSA for 1 h. After washing with TBS (50 mM Tris HCl, pH 7.4 and 150 mM NaCl) the cells were permeabilized for 15 min with 0.1% Triton X-100 and again washed with TBS followed by incubation with the indicated primary antibodies overnight. […] After repeated washings, the coverslips were mounted and analyzed using Zeiss LSM 510 or 710 laser scanning confocal microscope. For the studies shown in FIG. 1, Panel A, C. trachomatis inclusions were stained using the Pathfinder Chlamydia Culture Confirmation System (BioRad, Hercules, Calif., USA). At 24 h post C. trachomatis infection, cells were fixed with methanol for 10 min at room temperature and stained with the FITC conjugated pathfinder anti-chlamydial mAb according to the manufacturer's protocol (Bio-Rad, Hercules, Calif.). For the co-localization studies, 30,000 HeLa cells were seeded into EZ slide 4-well glass slides (Millipore, Temecula, Calif., USA) and infected with C. trachomatis as described above for 2.5 h the next day. Cells were fixed 24 h later in 4% formaldehyde in PBS for 15 min, permeabilized in 0.1% Triton X-100 for 10 min, and blocked in 1% BSA for 1 h at room temperature. […] The slides were mounted with Fluoromount mounting medium (Sigma Aldrich, St. Louis, Mo., USA), sealed, and examined using Zeiss 710 laser scanning confocal microscope.
BAPTA/AM and Ionomycin treatment. Monolayers of HeLa cells were washed with PBS and replaced with calcium free DMEM+1% FBS and pretreated for 1 h with BAPTA/AM (15 μM) followed by C. trachomatis infection for 24 h. BAPTA/AM concentration was maintained during the C. trachomatis infection. The control cells were treated with DMSO (<0.1%) followed by 24 h of C. trachomatis infection. In another set of experiments, HeLa cells were infected with C. trachomatis followed by addition of BAPTA/AM (15 μM) or DMSO at 2 or 5 hpi. The total time for C. trachomatis infection was 24 h.

For the next data set, the system named is F-actin. In words: Organization of F-actin at the chlamydial inclusion periphery (confocal microscopy). It counts as cell-based, human. Particulars: C. trachomatis 24 h. The procedure: Immunofluorescence. Cells were infected with C. trachomatis as described above. The cells were washed 5 times with PBS and fixed at either 2.5 hpi or 24 hpi with 4% PFA for 10 min and blocked with 5% BSA for 1 h. After washing with TBS (50 mM Tris HCl, pH 7.4 and 150 mM NaCl) the cells were permeabilized for 15 min with 0.1% Triton X-100 and again washed with TBS followed by incubation with the indicated primary antibodies overnight. […] After repeated washings, the coverslips were mounted and analyzed using Zeiss LSM 510 or 710 laser scanning confocal microscope. For the studies shown in FIG. 1, Panel A, C. trachomatis inclusions were stained using the Pathfinder Chlamydia Culture Confirmation System (BioRad, Hercules, Calif., USA). At 24 h post C. trachomatis infection, cells were fixed with methanol for 10 min at room temperature and stained with the FITC conjugated pathfinder anti-chlamydial mAb according to the manufacturer's protocol (Bio-Rad, Hercules, Calif.). For the co-localization studies, 30,000 HeLa cells were seeded into EZ slide 4-well glass slides (Millipore, Temecula, Calif., USA) and infected with C. trachomatis as described above for 2.5 h the next day. Cells were fixed 24 h later in 4% formaldehyde in PBS for 15 min, permeabilized in 0.1% Triton X-100 for 10 min, and blocked in 1% BSA for 1 h at room temperature. […]

For data set [2], the system named is EGFR, PLCγ1, STAT5 and Akt. Nature of the data set: Western blot of C. trachomatis-induced phosphorylation of EGFR and downstream effectors in HeLa cells. It counts as cell-based, human. The conditions noted are these: 25 μM Erlotinib for 2 h followed by Ct infection for 2.5 h. The procedure:
(§2) Immunoblotting. Cells were harvested and lysed in modified RIPA buffer (50 mM Tris, 150 mM NaCl, 1% sodium deoxycholate, 1% NP-40, 1 mM sodium fluoride) supplemented with protease inhibitor cocktail and phosphatase inhibitor tablet (Roche). For Western blotting of C. trachomatis antigens, the C. trachomatis-infected cells were lysed in 20 mM HEPES buffer (pH 8.0) containing 8 M urea supplemented with protease inhibitors. Cell lysates were incubated on ice for 1 h and then sonicated briefly. The soluble protein fraction was collected by centrifugation at 10,000 rpm. Total protein was estimated using the BCA method and equal amounts of proteins (10-20 μg) were processed for immunoblotting. Proteins were resolved on 10% SDS polyacrylamide gel and transferred onto a nitrocellulose membrane. The blot was blocked using 3% BSA and incubated with the indicated antibodies. ECL was used to detect the proteins according to the manufacturer's instructions.
EGFR inhibitor treatment. […] The cells were pretreated with Erlotinib (25 μM) for 2 h and then infected with C. trachomatis. […] The inhibitor concentration was maintained during the infection. In certain experiments in which protein phosphorylation was investigated (FIG. 1, Panels B, D, F and G, FIG. 2, FIG. 3 and FIG. 11) the cells were serum starved overnight before drug treatment and C. trachomatis infection. […]
In general terms: In western blotting, separated proteins are transferred to a membrane and probed.

In a further data set the test system is chlamydial Hsp60. In words: Western blot analysis of chlamydial Hsp60 in infected HeLa cells. The format is cell-based, Chlamydia trachomatis strain D. The method, then:
as §2, §1

The test system of the next data set is intracellular calcium. Nature of the data set: Intracellular calcium staining (fluorescence microscopy) in HeLa cells. The format is cell-based, human. The method, then:
Intracellular calcium staining. Cells were washed with calcium free incomplete DMEM and incubated with 2 μM Fluo-4 AM diluted in Ca^2++ free incomplete DMEM at 37° C. for 30 min. The cells were then washed with Ca^2++ free HBSS and analyzed for calcium levels using an Olympus IX71 fluorescence microscope.
BAPTA/AM and Ionomycin treatment. Monolayers of HeLa cells were washed with PBS and replaced with calcium free DMEM+1% FBS and pretreated for 1 h with BAPTA/AM (15 μM) followed by C. trachomatis infection for 24 h. BAPTA/AM concentration was maintained during the C. trachomatis infection. The control cells were treated with DMSO (<0.1%) followed by 24 h of C. trachomatis infection. In another set of experiments, HeLa cells were infected with C. trachomatis followed by addition of BAPTA/AM (15 μM) or DMSO at 2 or 5 hpi. The total time for C. trachomatis infection was 24 h. To induce mobilization of calcium from intracellular stores to the cytoplasm, cultured cells were pretreated for 1 h with 1 μg/ml Ionomycin before chlamydial infection. C. trachomatis-infected cells were washed three times with PBS after 24 hpi and processed for immunofluorescence as described above.
(In general: Calcium assays in cells follow changes in intracellular calcium, usually with a dye or a luminescent sensor.)

Data set [3] has as its system C. trachomatis. In words: Inside out staining: chlamydial attachment and entry into the host cell. The format is cell-based, Chlamydia trachomatis strain D. Particulars: HeLa cells, C. trachomatis 2.5 h.
Experimental: Inside out staining. Differential staining of external and internalized bacteria was performed as described previously and using three independent studies. Briefly, cells were grown overnight in 2-well Lab-Tek chamber slides and treated with either EGFR inhibitors or siRNA as described above and subsequently infected with Chlamydia for 2.5 h at 37° C. to allow for bacterial attachment and internalization. […] Infected cells were washed five times in PBS and fixed in 1% paraformaldehyde (PFA). After fixation, cells were blocked in 5% BSA for 1 h and then incubated with FITC-conjugated antibody against chlamydial EBs for 1 h to stain external EBs. Cells were then permeabilized with 0.1% Triton X-100, blocked again, and incubated with antibody against chlamydial LPS followed by incubation with rhodamine-conjugated anti-goat antibody to stain intracellular and extracellular EBs. Imaging was performed using confocal microscopy (Carl Zeiss, Germany). The quantification for the inside out experiments was performed manually based on the number of attached EBs observed per infected cell. The statistical analysis was based on imaging data collected from fifteen fields containing 3-10 cells per field as described below.
Similarly, fifteen random fields (3-10 cells per field) were used for the inside out experiments. All results are presented as mean±SEM. […]
In another data set the test system is chlamydial EBs. In words: Control experiment: viability of elementary bodies (EBs) treated with Erlotinib and Cetuximab (Hsp60 Western blot). The format is cell-based, Chlamydia trachomatis strain D. Particulars: EBs with Erlotinib 25 μM or Cetuximab 20 μg/ml for 2.5 h, HeLa infection 24 h. From the text:
Control experiments. […] EB pellets were washed and resuspended in SPG buffer and used for subsequent HeLa cell infection. At 24 hpi cells were lysed for Western blotting of chlamydial Hsp60 antigen.

A further data set concerns HeLa cells. In words: Cell viability assay (MTT). The format is cell-based, human. The conditions noted are these: 25 μM Erlotinib for 24 h.
Data set [4] has as its system C. trachomatis. Nature of the data set: Transmission electron microscopy of HeLa cells infected with C. trachomatis. The format is cell-based, Chlamydia trachomatis strain D. Particulars: C. trachomatis 24 h, vs respective controls. The method, then:
Transmission electron microscopy. HeLa cells were infected with C. trachomatis as described above. […] The cells were then washed and post-fixed for 1 h in 1% osmic acid in 0.1 N Millonig's buffer followed by 1 h treatment with 1% uranyl acetate. […] Thin sections were then cut with a Reichert ultracut E microtome and stained with 1% uranyl acetate and Reynold's lead citrate solutions, followed by the analysis using 80 kV Tecnai Spirit BioTwin transmission electron microscope.

[5] abbreviates: HeLa cells pre-treated with BAPTA/AM 15 μM for 1 h, calcium free DMEM.
Setting [6] is: HeLa cells treated before infection (Erlotinib 25 μM, Cetuximab 20 μg/ml or siRNA), vs DMSO, IgG or control siRNA.

For `CC(=O)OCOC(=O)CN(CC(=O)OCOC(C)=O)c1ccccc1OCCOc1ccccc1N(CC(=O)OCOC(C)=O)CC(=O)OCOC(C)=O` [BAPTA/AM], in the data set with C. trachomatis [1] (setting [5]), the Inclusion size result is listed as “significant decrease; also recorded: significantly reduced” and the Number of inclusions result is “significant decrease; also recorded: significantly reduced”. Besides, the Inclusion development result with C. trachomatis [1] (HeLa cells, BAPTA/AM 15 μM added at 2 or 5 hpi, vs DMSO) is on record as “Impaired inclusion formation; also recorded: impaired inclusion development”. In addition, in the data set on F-actin (HeLa cells pre-treated with BAPTA/AM for 1 h), the “Assembly of F-actin at the inclusion periphery” value is “diffused assembly of F-actin at the inclusion periphery”.
`C#Cc1cccc(Nc2ncnc3cc(OCCOC)c(OCCOC)cc23)c1` [Erlotinib]: the “EGFR phosphorylation induced by Ct infection” value in data set [2] is reported as “an increase in EGFR phosphorylation upon Ct infection in the absence of Erlotinib but not in the presence of the drug”. Also, the “Chlamydial Hsp60 levels” value in the data set with chlamydial Hsp60 (HeLa cells treated before infection, C. trachomatis 2.5 h) is reported as “significant (P<0.001) reduction”. The “Chlamydial Hsp60” value with chlamydial Hsp60 (HeLa cells, Erlotinib 25 μM added at 2.5 hpi, total infection 24 h) is “Significantly lower expression; also recorded: Significant decrease”. The “Chlamydial Hsp60 antigen” value in the data set on chlamydial Hsp60 (HeLa cells, Erlotinib 25 μM followed by Ct infection for 24 h) is reported as “marked decrease”. The Inclusion size entry in the data set on C. trachomatis [1] (setting [6]) is listed as “Significant reduction”. Further, in the data set with C. trachomatis [1] (setting [6]), the Number of inclusions entry is on record as “significantly reduced”. Moreover, the Inclusion development entry was “impaired regular inclusion formation and resulted in formation of numerous bacterial aggregates; also recorded: incomplete inclusion development and bacterial aggregates” in the data set with C. trachomatis [1] (HeLa cells, Erlotinib added at 2.5 hpi); “impaired regular inclusion formation and resulted in formation of numerous bacterial aggregates; also recorded: incomplete inclusion development and bacterial aggregates” in the data set with C. trachomatis [1] (HeLa cells, Erlotinib added at 5 hpi); “did not significantly affect; also recorded: Well-developed C. trachomatis inclusions” in the data set with C. trachomatis [1] (HeLa cells, Erlotinib added at 18 hpi). For the same compound, in the data set on intracellular calcium (Erlotinib added at 2.5 and 5 hpi, stained at 24 hpi), the “Calcium signal in C. trachomatis-infected cells (Fluo-4 AM)” value is “significant drop in calcium signal; also recorded: weak calcium signal”. The “Chlamydial binding to the host cell surface (cell-associated bacteria, external+internalized)” value in the data set on C. trachomatis [3] is recorded as “Significant reduction”. Also, the “Chlamydial Hsp60 antigen load in cells infected with drug-treated vs untreated EBs (EB viability)” value with chlamydial EBs is on record as “comparable; also recorded: no difference”. Further, the “Viability of HeLa cells” value in the data set with HeLa cells is given as “did not reduce the viability; also recorded: did not affect the viability”. In addition, in the data set with F-actin (HeLa cells with EGFR inhibition), the “Assembly of F-actin at the inclusion periphery” value is recorded as “altered”. Further, the “Inclusion morphology by transmission electron microscopy” value in the data set on C. trachomatis [4] was “small inclusions; also recorded: smaller and less mature”.
As to `C[C@H](CCC(=O)O)C[C@H](C)C[C@H](C)C(=O)/C=C(\O)[C@H](C)C[C@H](C)C/C=C/[C@@H](C)[C@@H](O)[C@@H](C)[C@@H](O)C[C@@H]1CC[C@@](C)([C@H]2CC[C@@](C)([C@@H](C)O)O2)O1` [Ionomycin], the “Inclusion formation in EGFR siRNA treated cells with or without Ionomycin” value in the data set on C. trachomatis [1] (HeLa cells, EGFR siRNA, Ionomycin 1 μg/ml 1 h pre-treatment, Ct 24 h) is listed as “not able to rescue; also recorded: no significant difference”. Also, in the data set with intracellular calcium (Ionomycin 1 μg/ml for 1 h), the “Intracellular free calcium (Fura-2/AM)” value was “Increased intracellular free calcium”.

The values are drawn from patent US10017768B2, “Method of treatment of chlamydial infections with selected EGFR inhibitors” (priority 2013, dated 2018).
